These results are taken from patent US7087610B2, “Benzothiazole antiviral agents” (priority 2004, dated 2006).

The structures appear in SMILES notation. pEC50: −log10 of the molar value.

For this assay, the system named is single-round infectious reporter virus (HIV-1 envelope). In words: HIV-1 single-round infectious luciferase reporter virus infection of HeLa CD4 cells. It is filed as cell-based. The following applies: Human immunodeficiency virus 1, HeLa, 72 h. The protocol:
Cells: (virus production) human embryonic kidney cell line, 293, was propagated in Dulbecco's Modified Eagle Medium (Invitrogen, Carlsbad, Calif.) containing 10% fetal Bovine serum (FBS, Sigma, St. Louis, Mo.); (virus infection) human epithelial cell line, HeLa, expressing the HIV-1 receptor CD4 was propagated in Dulbecco's Modified Eagle Medium (Invitrogen, Carlsbad, Calif.) containing 10% fetal Bovine serum (FBS, Sigma, St. Louis, Mo.) and supplemented with 0.2 mg/mL Geneticin (Invitrogen, Carlsbad, Calif.).
Virus: single-round infectious reporter virus was produced by co-transfecting human embryonic kidney 293 cells with an HIV-1 envelope DNA expression vector and a proviral cDNA containing an envelope deletion mutation and the luciferase reporter gene inserted in place of HIV-1 nef sequences. Transfections were performed using lipofectAMINE PLUS reagent as described by the manufacturer (Invitrogen, Carlsbad, Calif.).
Experiment: HeLa CD4 cells were plated in 96 well plates at a cell density of 1×10^4 cells per well in 100 μl Dulbecco's Modified Eagle Medium containing 10 % fetal Bovine serum and incubated overnight. Compound was added in a 2 μl dimethylsulfoxide solution, so that the final assay concentration would be ≦10 μM. Single-round infectious reporter virus (100 μL) in Dulbecco's Modified Eagle Medium was then added to the plated cells and compound at an approximate multiplicity of infection (MOI) of 0.01, resulting in a final volume of 200 μl per well. Virally-infected cells were incubated at 37 degrees Celsius, in a CO2 incubator, and harvested 72 h after infection. Viral infection was monitored by measuring luciferase expression from viral DNA in the infected cells using a luciferase reporter gene assay kit, as described by the manufacturer (Roche Molecular Biochemicals, Indianapolis, Ind.). Infected cell supernatants were removed and 50 μl of lysis buffer was added per well. After 15 minutes, 50 μl of freshly-reconstituted luciferase assay reagent was added per well. Luciferase activity was then quantified by measuring luminescence using a Wallac microbeta luminescence reader.
The percent inhibition for each compound was calculated by quantifying the level of luciferase expression in cells infected in the presence of each compound as a percentage of that observed for cells infected in the absence of compound and subtracting such a determined value from 100. The effective concentration for fifty percent inhibition (EC50) was calculated with Microsoft Excel Xlfit curve fitting software. For each compound, curves were generated from percent inhibition calculated at 10 different concentrations by using a four paramenter logistic model (model 205).
For orientation: In a reporter assay the amount or activity of a reporter protein is the signal.

In the case of `C[C@@H]1CN(C(=O)c2ccccc2)CCN1C(=O)C(C#N)c1nc2ccccc2s1` (stereo partly drawn) [Example 1, (R)-N-(benzoyl)-3-methyl-N′-[(benzothiazol-2-yl)-2-cyanoacetyl]-piperazine], the pEC50 (commonly the EC50 on a negative log10 scale, so that one unit is a factor of ten) was above 6.00.

`C[C@@H]1CN(C(=O)c2ccccc2)CCN1C(=O)C(=O)c1nc2ccccc2s1` [Example 2, (R)-N-(benzoyl)-3-methyl-N′-[(benzothiazol-2-yl)-2-oxoacetyl]-piperazine] gave a pEC50 above 6.00. Then `C[C@@H]1CN(C(=O)c2ccccc2)CCN1C(=O)C(=O)c1ccc2scnc2c1` [Example 4, (R)-N-(benzoyl)-3-methyl-N′-[(benzothiazol-5-yl)-2-oxoacetyl]piperazine], with above 6.00.

The compound `C[C@@H]1CN(C(=O)c2ccccc2)CCN1C(=O)C(=O)c1ccc2sc(-n3cccc3)nc2c1` [Example 7] showed a pEC50 above 6.00.

`C[C@@H]1CN(C(=O)c2ccccc2)CCN1C(=O)C(=O)c1ccc2sc(N)nc2c1` [Example 8]: the pEC50 is above 6.00.
